Assay results reported in patent US20110189709A1, “METHOD FOR DETECTING HEPATIC INJURY DUE TO ANTITHYROID DRUG” (YAMASA CORPORATION, priority 2010, published 2011).

What was measured:
[1] = system: primary cultured hepatocytes; conditions: 10 mM PTU, 1 hour and 3 hours after adding
Method: Rat hepatocytes, which were isolated by collagenase prefusion, are placed into a 24-well plate coated with collagen to have 10^5 cells/well and cultured for 4 hours. After removing the cells not fixed to the well, 10 mM of PTU was added to the cells and each of the 3 cultured media prior to adding the PTU, of 1 hour after adding the PTU, and of 3 hours after adding PTU, was sampled. After 3 hours of culturing, 0.5% of Triton-X100 was added to destroy the cells and a suspended solution was obtained. OCT, ALT and AST levels in each of the sampled cultured medium and the suspended solution after cell destruction were measured. […] Based upon an activity of the suspended solution as 100%, leakage rates of OCT, AST and ALT were calculated in each cultured medium obtained by sampling.

[2] = Rat thyrotoxicosis model (T3 administration); format: in vivo
Method: Each of blood OCT, AST and ALT levels was measured before and after the administration.

[3] = liver homogenate after 10 days T3, vs control group

SMILES	levels of AST, ALT and OCT in cultured medium ([1]; FIG. 1)	OCT leakage rates compared to the ALT leakage rates ([1]; suspended solution after cell destruction = 100%)	ALT content in the liver [2, 3]	AST content in the liver [2, 3]	blood OCT level ([2]; male Wistar rats, T3 0.1 mg/kg/day s.c. for 10 days, ELISA, control group 14.0±1.6) [ng/mL]	blood ALT level ([2]; male Wistar rats, T3 0.1 mg/kg/day s.c. for 10 days, control group 8.2±0.8) [IU/L]	blood AST level ([2]; male Wistar rats, T3 0.1 mg/kg/day s.c. for 10 days, control group 29.0±5.1) [IU/L]	body weight ([2]; male Wistar rats, T3 0.1 mg/kg/day s.c. for 10 days, control group 303±15.9 g) [g]
CCCc1cc(=O)[nH]c(=S)[nH]1 [PTU, propylthiouracil]	elevated	higher						
N[C@@H](Cc1cc(I)c(Oc2ccc(O)c(I)c2)c(I)c1)C(=O)O [T3]			elevated significantly	elevated significantly	11.9 ± 2.5	11.2±0.6	40.0±6.51	266 ± 5.8
